Results taken from patent US10550105B2 (Ribon Therapeutics Inc., priority 2018, dated 2020).

Each compound was assayed against PARP7 (Homo sapiens (Human), UniProt Q7Z3E1) (assay: Enzymatic assay for inhibition of PARP7: TR-FRET displacement of biotinylated Probe A from the TIPARP active site). Conditions: Table A-1.
Format: binding
In short: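 Percent inhibition derives from the ratio of 665 to 615 nm emission, which reports how much Probe A remains bound to TIPARP. Plates sat 30 min at 25° C before the time-resolved read (320 nm excitation).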

Sequence of PARP7 (Q7Z3E1 whole entry): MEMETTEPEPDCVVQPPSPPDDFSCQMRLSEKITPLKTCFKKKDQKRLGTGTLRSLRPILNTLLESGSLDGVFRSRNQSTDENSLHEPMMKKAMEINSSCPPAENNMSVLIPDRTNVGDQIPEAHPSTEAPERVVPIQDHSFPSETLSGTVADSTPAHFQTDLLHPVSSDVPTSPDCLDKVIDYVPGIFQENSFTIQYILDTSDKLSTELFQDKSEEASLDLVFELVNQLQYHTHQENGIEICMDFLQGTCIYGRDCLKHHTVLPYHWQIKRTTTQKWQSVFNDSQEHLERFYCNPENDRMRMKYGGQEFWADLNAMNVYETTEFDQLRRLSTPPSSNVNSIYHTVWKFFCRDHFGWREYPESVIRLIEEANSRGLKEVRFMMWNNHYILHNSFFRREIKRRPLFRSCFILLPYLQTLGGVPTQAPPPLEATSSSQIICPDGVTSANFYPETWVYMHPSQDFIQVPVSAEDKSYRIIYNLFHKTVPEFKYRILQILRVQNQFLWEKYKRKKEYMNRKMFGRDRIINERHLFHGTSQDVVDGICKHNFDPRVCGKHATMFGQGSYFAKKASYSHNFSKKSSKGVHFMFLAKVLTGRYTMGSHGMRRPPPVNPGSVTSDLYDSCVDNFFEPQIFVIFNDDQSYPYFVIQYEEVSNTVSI

Row | Compound | IC50
1 | CN(C)C1CCN(c2cccc3c2CN(c2cn[nH]c(=O)c2C(F)(F)F)C3)CC1 [Example 281, 5-(4-(4-(Dimethylamino)piperidin-1-yl)isoindolin-2-yl)-4-(trifluoromethyl)pyridazin-3(2H)-one] | 100 to 1000 nM
2 | C[C@@H]1c2ccccc2CN1c1cn[nH]c(=O)c1C(F)(F)F [Example 251, (R)-5-(1-Methylisoindolin-2-yl)-4-(trifluoromethyl)pyridazin-3(2H)-one] | ≥ 1000 nM
3 | O=c1[nH]ncc(N2Cc3cccc(OCCN4CCCCC4)c3C2)c1C(F)(F)F [Example 213, 5-(4-(2-(Piperidin-1-yl)ethoxy)isoindolin-2-yl)-4-(trifluoromethyl)pyridazin-3(2H)-one] | 100 to 1000 nM
4 | N#Cc1ccc(N2CCN(C(=O)C[C@@H]3CC[C@@H](COc4cn[nH]c(=O)c4C(F)(F)F)N3)CC2)nc1 [Example 639, 6-(4-(2-((2S,5S)-5-(((6-Oxo-5-(trifluoromethyl)-1,6-dihydropyridazin-4-yl)oxy)methyl)pyrrolidin-2-yl)acetyl)piprazin-1-yl)nicotinonitrile] | ≥ 1000 nM
5 | CN(C)CCOc1cccc2c1CN(c1cn[nH]c(=O)c1Cl)C2 [Example 166, 4-Chloro-5-(4-(2-(dimethylamino)ethoxy)isoindolin-2-yl)pyridazin-3(2H)-one] | ≥ 1000 nM
6 | N#Cc1ccc(N2CCN(C(=O)C[C@H]3CC[C@@H](COc4cn[nH]c(=O)c4Cl)O3)CC2)nc1 [Example 582 Isomer C, 6-(4-[2-[(2R,5S)-5-[[(5-Chloro-6-oxo-1,6-dihydropyridazin-4-yl)oxy]methyl]oxolan-2-yl]acetyl]piperazin-1-yl)pyridine-3-carbonitrile] | ≥ 1000 nM
7 | O=C(CCOCCOc1cn[nH]c(=O)c1Cl)N1CCN(c2ncc(Cl)cn2)CC1 [Example 522, 4-Chloro-5-(2-[3-[4-(5-chloropyrimidin-2-yl)piperazin-1-yl]-3-oxopropoxy]ethoxy)-2,3-dihydropyridazin-3-one] | < 100 nM
8 | COC[C@H](COCCC(=O)N1CCN(c2ccc(C#N)cn2)CC1)Oc1cn[nH]c(=O)c1C(F)(F)F (single isomer, unassigned) [Example 532 Isomer B] | 100 to 1000 nM
9 | CC(=O)N1CCC(Oc2cc(F)c3c(c2)CN(c2cn[nH]c(=O)c2C(F)(F)F)C3)CC1 [Example 4, 5-[6-[(1-acetylpiperidin-4-yl)oxy]-4-fluoro-2,3-dihydro-1H-isoindol-2-yl]-4-(trifluoromethyl)-2,3-dihydropyridazin-3-one] | < 100 nM
10 | O=C(c1cccc(OCC2c3ccccc3CN2c2cn[nH]c(=O)c2C(F)(F)F)c1)N1CCn2ncnc2C1 (stereo not shown) [Example 398, 5-(1-((3-(5,6,7,8-Tetrahydro-[1,2,4]triazolo[1,5-a]pyrazine-7-carbonyl)phenoxy)methyl)isoindolin-2-yl)-4-(trifluoromethyl)pyridazin-3(2H)-one] | < 100 nM
11 | O=c1[nH]ncc(N2Cc3cc(OCCN4CCOCC4)cnc3C2)c1C(F)(F)F [Example 325, 5-(3-(2-Morpholinoethoxy)-5,7-dihydro-6H-pyrrolo[3,4-b]pyridin-6-yl)-4-(trifluoromethyl)pyridazin-3(2H)-one] | 100 to 1000 nM
12 | C[C@@H](COCCC(=O)N1CCN(c2cnc(C(F)(F)F)cn2)CC1)Oc1cn[nH]c(=O)c1C(F)(F)F [Example 662, (S)-5-((1-(3-Oxo-3-(4-(5-(trifluoromethyl)pyrazin-2-yl)piperazin-1-yl)propoxy)propan-2-yl)oxy)-4-(trifluoromethyl)pyridazin-3(2H)-one] | < 100 nM

Next, values leading:

Row | IC50 | Compound
13 | < 100 nM | N#Cc1ccc(N2CCN(C(=O)CCO[C@@H]3Cc4ccccc4[C@H]3Nc3cn[nH]c(=O)c3C(F)(F)F)CC2)nc1 (single isomer, unassigned) [Example 537 Isomer B]
14 | < 100 nM | N#Cc1ccc(N2CCN(C(=O)/C=C/COC[C@H]3c4ccccc4CN3c3cn[nH]c(=O)c3C(F)(F)F)CC2)nc1 [Example 79 Isomer D, 6-[4-[(2E)-4-[[(1R)-2-[6-oxo-5-(trifluoromethyl)-1,6-dihydropyridazin-4-yl]-2,3-dihydro-1H-isoindol-1-yl]methoxy]but-2-enoyl]piperazin-1-yl]pyridine-3-carbonitrile]
15 | < 100 nM | O=C(C[C@H]1CC[C@H](CNc2cn[nH]c(=O)c2C(F)(F)F)O1)N1CCN(c2ccc(C(F)(F)F)cn2)CC1 (single isomer, unassigned) [Example 546 Isomer B]
16 | < 100 nM | COC[C@@H](COCCC(=O)N1CCN(c2ncc(Cl)cn2)CC1)Oc1cn[nH]c(=O)c1C(F)(F)F (single isomer, unassigned)
17 | < 100 nM | O=C(C[C@@H]1CC[C@@H]([C@@H]2CCCN2c2cn[nH]c(=O)c2C(F)(F)F)O1)N1CCN(c2ncc(C(F)(F)F)cn2)CC1 [Example 149A, 5-[(2S)-2-[(2S,5S)-5-(2-oxo-2-[4-[5-(trifluoromethyl)pyrimidin-2-yl]piperazin-1-yl]ethyl)oxolan-2-yl]pyrrolidin-1-yl]-4-(trifluoromethyl)-2,3-dihydropyridazin-3-one]
18 | < 100 nM | C[C@@H](COCCC(=O)N1CCN(c2ncc(C#N)s2)CC1)Nc1cn[nH]c(=O)c1C(F)(F)F [Example 680, (S)-2-(4-(3-(2-((6-Oxo-5-(trifluoromethyl)-1,6-dihydropyridazin-4-yl)amino)propoxy)propanoyl)piperazin-1-yl)thiazole-5-carbonitrile]
19 | < 100 nM | COC[C@@H](COCCC(=O)N1CCN(c2ncc(C(F)(F)F)cn2)CC1)Nc1cn[nH]c(=O)c1C(F)(F)F [Example 559, 5-[[(2S)-1-Methoxy-3-(3-oxo-3-[4-[5-(trifluoromethyl)pyrimidin-2-yl]piperazin-1-yl]propoxy)propan-2-yl]amino]-4-(trifluoromethyl)-2,3-dihydropyridazin-3-one]
20 | < 100 nM | C[C@@H](COCCC(=O)N1CCN(c2ncc(C(F)(F)F)cn2)CC1)Oc1cn[nH]c(=O)c1C(F)(F)F (single isomer, unassigned) [Example 544 Isomer A]
21 | < 100 nM | C[C@@H](COCC(O)CN1CCN(c2ncc(C(F)(F)F)cn2)CC1)Nc1cn[nH]c(=O)c1C(F)(F)F (stereo partly drawn) [Example 626, 5-(((2S)-1-(2-Hydroxy-3-(4-(5-(trifluoromethyl)pyrimidin-2-yl)piperazin-1-yl)propoxy)propan-2-yl)amino)-4-(trifluoromethyl)pyridazin-3(2H)-one]
22 | < 100 nM | O=C(C[C@@H]1CC[C@H](CNc2cn[nH]c(=O)c2C(F)(F)F)O1)N1CCN(c2ncc(Cl)cn2)CC1 (single isomer, unassigned) [Example 567 Isomer B]
23 | < 100 nM | N#Cc1ccc(N2CCN(C(=O)C3CCC(OCC4CCN(c5cn[nH]c(=O)c5C(F)(F)F)C4)CC3)CC2)nc1 (stereo not shown) [Example 97, 6-[4-[4-([1-[6-oxo-5-(trifluoromethyl)-1,6-dihydropyridazin-4-yl]pyrrolidin-3-yl]methoxy)cyclohexanecarbonyl]piperazin-1-yl]pyridine-3-carbonitrile]
24 | < 100 nM | COCc1cccc2c1CN(c1cn[nH]c(=O)c1C(F)(F)F)C2 [Example 260, 5-(4-(Methoxymethyl)isoindolin-2-yl)-4-(trifluoromethyl)pyridazin-3(2H)-one]
25 | < 100 nM | N#Cc1ccc(N2CCN(C(=O)CCOC[C@@H]3c4ncccc4CN3c3cn[nH]c(=O)c3Cl)CC2)nc1 [Example 431, (S)-6-(4-(3-((6-(5-Chloro-6-oxo-1,6-dihydropyridazin-4-yl)-6,7-dihydro-5H-pyrrolo[3,4-b]pyridin-7-yl)methoxy)propanoyl)piperazin-1-yl)nicotinonitrile]
